In patent US11098038B2, “Imidazole-based anticancer agents and derivatives thereof, and methods of making and using same” (The University of Toledo, priority 2017, dated 2021):

Assays:
RXF393 = assay: NCI 60 screen, RXF393; format: cell-based; conditions: Homo sapiens, RXF 393, Renal
Protocol: (§1) The compounds synthesized were tested at the National Cancer Institute (NCI) for anti-proliferative activity in the 60 human tumor cell line assay.

A549/ATCC = assay: NCI 60 screen, A549/ATCC; format: cell-based; conditions: Homo sapiens, Non-Small Cell Lung
Protocol: as §1

MOLT-4 = assay: NCI 60 screen, MOLT-4; format: cell-based; conditions: Homo sapiens, Leukemia
Protocol: as §1

SNB-75 = assay: NCI 60 screen, SNB-75; format: cell-based; conditions: Homo sapiens, CNS
Protocol: as §1

UACC-257 = assay: NCI 60 screen, UACC-257; format: cell-based; conditions: Homo sapiens, Melanoma
Protocol: as §1

MDA-MB-435 = assay: NCI 60 screen, MDA-MB-435; format: cell-based; conditions: Homo sapiens, Melanoma
Protocol: as §1

MALME-3M = assay: NCI 60 screen, MALME-3M; format: cell-based; conditions: Homo sapiens, Melanoma
Protocol: as §1

NCI-H226 = assay: NCI 60 screen, NCI-H226; format: cell-based; conditions: Homo sapiens, Non-Small Cell Lung
Protocol: as §1

TK-10 = assay: NCI 60 screen, TK-10; format: cell-based; conditions: Homo sapiens, Renal
Protocol: as §1

HCC-2998 = assay: NCI 60 screen, HCC-2998; format: cell-based; conditions: Homo sapiens, Colon
Protocol: as §1

MDA-MB-231/ATCC = assay: NCI 60 screen, MDA-MB-231/ATCC; format: cell-based; conditions: Homo sapiens, Breast
Protocol: as §1

SN12C = assay: NCI 60 screen, SN12C; format: cell-based; conditions: Homo sapiens, Renal
Protocol: as §1

SF-539 = assay: NCI 60 screen, SF-539; format: cell-based; conditions: Homo sapiens, CNS
Protocol: as §1

HOP-92 = assay: NCI 60 screen, HOP-92; format: cell-based; conditions: Homo sapiens, Non-Small Cell Lung
Protocol: as §1

SF-295 = assay: NCI 60 screen, SF-295; format: cell-based; conditions: Homo sapiens, CNS
Protocol: as §1

PC-3 = assay: NCI 60 screen, PC-3; format: cell-based; conditions: Homo sapiens, Prostatic
Protocol: as §1

BT-549 = assay: NCI 60 screen, BT-549; format: cell-based; conditions: Homo sapiens, Breast
Protocol: as §1

COLO 205 = assay: NCI 60 screen, COLO 205; format: cell-based; conditions: Homo sapiens, Colon
Protocol: as §1

HL-60(TB) = assay: NCI 60 screen, HL-60(TB); format: cell-based; conditions: Homo sapiens, Leukemia
Protocol: as §1

U251 = assay: NCI 60 screen, U251; format: cell-based; conditions: Homo sapiens, U-251, CNS
Protocol: as §1

IGROV1 = assay: NCI 60 screen, IGROV1; format: cell-based; conditions: Homo sapiens, IGROV-1, Ovarian
Protocol: as §1

KM12 = assay: NCI 60 screen, KM12; format: cell-based; conditions: Homo sapiens, Colon
Protocol: as §1

SK-MEL-2 [1] = assay: NCI 60 screen, SK-MEL-2 (second line); format: cell-based; conditions: Homo sapiens; Melanoma, SK-MEL-2 (second of two lines so named, r38)
Protocol: as §1

UACC-62 = assay: NCI 60 screen, UACC-62; format: cell-based; conditions: Homo sapiens, Melanoma
Protocol: as §1

OVCAR-4 = assay: NCI 60 screen, OVCAR-4; format: cell-based; conditions: Homo sapiens, Ovarian
Protocol: as §1

HCT15 = assay: NCI 60 screen, HCT15; format: cell-based; conditions: Homo sapiens, HCT-15, Colon
Protocol: as §1

SK-MEL-2 [2] = assay: NCI 60 screen, SK-MEL-2 (first line); format: cell-based; conditions: Homo sapiens; Melanoma, SK-MEL-2 (first of two lines so named, r37)
Protocol: as §1

SR = assay: NCI 60 screen, SR; format: cell-based; conditions: Homo sapiens, Leukemia
Protocol: as §1

786-0 = assay: NCI 60 screen, 786-0; format: cell-based; conditions: Homo sapiens, Renal
Protocol: as §1

SF-268 = assay: NCI 60 screen, SF-268; format: cell-based; conditions: Homo sapiens, CNS
Protocol: as §1

EKVX = assay: NCI 60 screen, EKVX; format: cell-based; conditions: Homo sapiens, Non-Small Cell Lung
Protocol: as §1

K-562 = assay: NCI 60 screen, K-562; format: cell-based; conditions: Homo sapiens, K562, Leukemia
Protocol: as §1

OVCAR-8 = assay: NCI 60 screen, OVCAR-8; format: cell-based; conditions: Homo sapiens, Ovarian
Protocol: as §1

LOX IMVI = assay: NCI 60 screen, LOX IMVI; format: cell-based; conditions: Homo sapiens, Melanoma
Protocol: as §1

CCRF-CEM = assay: NCI 60 screen, CCRF-CEM; format: cell-based; conditions: Homo sapiens, Leukemia
Protocol: as §1

HS 578T = assay: NCI 60 screen, HS 578T; format: cell-based; conditions: Homo sapiens, Breast
Protocol: as §1

DU-145 = assay: NCI 60 screen, DU-145; format: cell-based; conditions: Homo sapiens, Prostatic
Protocol: as §1

OVCAR-3 = assay: NCI 60 screen, OVCAR-3; format: cell-based; conditions: Homo sapiens, Ovarian
Protocol: as §1

SK-OV-3 = assay: NCI 60 screen, SK-OV-3; format: cell-based; conditions: Homo sapiens, Ovarian
Protocol: as §1

NCI-H522 = assay: NCI 60 screen, NCI-H522; format: cell-based; conditions: Homo sapiens, Non-Small Cell Lung
Protocol: as §1

NCI-H23 = assay: NCI 60 screen, NCI-H23; format: cell-based; conditions: Homo sapiens, Non-Small Cell Lung
Protocol: as §1

CAKI-1 = assay: NCI 60 screen, CAKI-1; format: cell-based; conditions: Homo sapiens, Renal
Protocol: as §1

NCI-460 = assay: NCI 60 screen, NCI-460; format: cell-based; conditions: Homo sapiens, Non-Small Cell Lung
Protocol: as §1

MCF7 = assay: NCI 60 screen, MCF7; format: cell-based; conditions: Homo sapiens, Breast
Protocol: as §1

HOP-62 = assay: NCI 60 screen, HOP-62; format: cell-based; conditions: Homo sapiens, Non-Small Cell Lung
Protocol: as §1

UO-31 = assay: NCI 60 screen, UO-31; format: cell-based; conditions: Homo sapiens, Renal
Protocol: as §1

NCI/ADR-RES = assay: NCI 60 screen, NCI/ADR-RES; format: cell-based; conditions: Homo sapiens, Ovarian
Protocol: as §1

M14 = assay: NCI 60 screen, M14; format: cell-based; conditions: Homo sapiens, Melanoma
Protocol: as §1

SK-MEL-5 = assay: NCI 60 screen, SK-MEL-5; format: cell-based; conditions: Homo sapiens, Melanoma
Protocol: as §1

NCI-322M = assay: NCI 60 screen, NCI-322M; format: cell-based; conditions: Homo sapiens, Non-Small Cell Lung
Protocol: as §1

OVCAR-5 = assay: NCI 60 screen, OVCAR-5; format: cell-based; conditions: Homo sapiens, Ovarian
Protocol: as §1

HCT-116 = assay: NCI 60 screen, HCT-116; format: cell-based; conditions: Homo sapiens, Colon
Protocol: as §1

SNB-19 = assay: NCI 60 screen, SNB-19; format: cell-based; conditions: Homo sapiens, CNS
Protocol: as §1

MDA-MB-468 = assay: NCI 60 screen, MDA-MB-468; format: cell-based; conditions: Homo sapiens, Breast
Protocol: as §1

A498 = assay: NCI 60 screen, A498; format: cell-based; conditions: Homo sapiens, Renal
Protocol: as §1

ACHN = assay: NCI 60 screen, ACHN; format: cell-based; conditions: Homo sapiens, Renal
Protocol: as §1

T-47D = assay: NCI 60 screen, T-47D; format: cell-based; conditions: Homo sapiens, T47D, Breast
Protocol: as §1

SW-620 = assay: NCI 60 screen, SW-620; format: cell-based; conditions: Homo sapiens, Colon
Protocol: as §1

HT29 = assay: NCI 60 screen, HT29; format: cell-based; conditions: Homo sapiens, HT-29, Colon
Protocol: as §1

RPMI-8226 = assay: NCI 60 screen, RPMI-8226; format: cell-based; conditions: Homo sapiens, Leukemia
Protocol: as §1

Cn1ccnc1C(=O)/C=C/c1ccc(CC(=O)Nc2ccc(F)cc2)cc1 [Compound 28, (E)-N-(4-fluorophenyl)-2-(4-(3-(1-methyl-1H-imidazol-2-yl)-3-oxoprop-1-en-1-yl)phenyl)acetamide]
GI50 (RXF393): 3.89 µM
GI50 (A549/ATCC): 6.43 µM
GI50 (MOLT-4): 2.32 µM
GI50 (SNB-75): 3.74 µM
GI50 (UACC-257): 6.99 µM
GI50 (MDA-MB-435): 4.25 µM
GI50 (MALME-3M): 5.28 µM
GI50 (NCI-H226): 8.57 µM
GI50 (TK-10): 10.5 µM
GI50 (HCC-2998): 3.78 µM
GI50 (MDA-MB-231/ATCC): 2.96 µM
GI50 (SN12C): 1.62 µM
GI50 (SF-539): 3.59 µM
GI50 (HOP-92): 4.51 µM
GI50 (SF-295): 4.55 µM
GI50 (PC-3): 1.99 µM
GI50 (BT-549): 1.32 µM
GI50 (COLO 205): 4.39 µM
GI50 (HL-60(TB)): 1.6 µM
GI50 (U251): 1.4 µM
GI50 (IGROV1): 2.93 µM
GI50 (KM12): 1.62 µM
GI50 (SK-MEL-2 [1]): 4.47 µM
GI50 (UACC-62): 3.51 µM
GI50 (OVCAR-4): 5.68 µM
GI50 (HCT15): 1.29 µM
GI50 (SK-MEL-2 [2]): 7.01 µM
melting point: 213 °C
GI50 (SR): 0.51 µM
GI50 (786-0): 1.37 µM
GI50 (SF-268): 2.89 µM
GI50 (EKVX): 5.5 µM
GI50 (K-562): 0.82 µM
GI50 (OVCAR-8): 5.71 µM
GI50 (LOX IMVI): 0.71 µM
GI50 (CCRF-CEM): 2 µM
GI50 (HS 578T): 1.5 µM
GI50 (DU-145): 1.24 µM
GI50 (OVCAR-3): 0.96 µM
GI50 (SK-OV-3): 9.81 µM
GI50 (NCI-H522): 3.34 µM
GI50 (NCI-H23): 3.04 µM
GI50 (CAKI-1): 3.14 µM
GI50 (NCI-460): 1.8 µM
GI50 (MCF7): 1.04 µM
GI50 (HOP-62): 4.68 µM
GI50 (UO-31): 1.72 µM
GI50 (NCI/ADR-RES): 4.24 µM
GI50 (M14): 3.23 µM
GI50 (SK-MEL-5): 4.45 µM
GI50 (NCI-322M): 2.07 µM
GI50 (OVCAR-5): 4.36 µM
GI50 (HCT-116): 0.99 µM
GI50 (SNB-19): 2.74 µM
GI50 (MDA-MB-468): 1.72 µM
GI50 (A498): 5.56 µM
GI50 (ACHN): 5.74 µM
GI50 (T-47D): 8.34 µM
GI50 (SW-620): 1.97 µM
GI50 (HT29): 2.27 µM
GI50 (RPMI-8226): 1.02 µM
